From patent US11285218B2, “Degradation of bromodomain-containing protein 9 (BRD9) by conjugation of BRD9 inhibitors with E3 ligase ligand and methods of use” (Dana-Farber Cancer Institute, Inc., priority 2016, dated 2022)

Assays:
[1] = target: T1, ATAD2A (Homo sapiens, UniProt Q6PL18); assay: BromoScan single-point screen; assay type: binding; conditions: percent of protein captured on solid support vs control
T1 construct: utilizing DNA-tagged bromodomain and immobilized ligand attached to solid support
T1 sequence (Q6PL18 980-1092 limits assumed): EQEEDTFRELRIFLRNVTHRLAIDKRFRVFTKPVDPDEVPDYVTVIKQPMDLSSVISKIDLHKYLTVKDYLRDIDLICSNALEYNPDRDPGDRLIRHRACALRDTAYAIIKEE
Description: (§1) The BromoScan is an assay that measures the engagement of compounds with bromodomain proteins by utilizing DNA-tagged bromodomain and immobilized ligand attached to solid support. In the control test, DNA-tagged bromodomain binds to the ligand and the bromodomain is captured on the solid support. Compounds that compete for the bromodomain binding location on the ligand will prevent the bromodomain from binding, resulting in less protein captured on the solid support.

[2] = target: T2, ATAD2B (Homo sapiens, UniProt Q9ULI0); assay: BromoScan single-point screen; assay type: binding; conditions: percent of protein captured on solid support vs control
T2 construct: utilizing DNA-tagged bromodomain and immobilized ligand attached to solid support
T2 sequence (Q9ULI0 951-1066 limits assumed): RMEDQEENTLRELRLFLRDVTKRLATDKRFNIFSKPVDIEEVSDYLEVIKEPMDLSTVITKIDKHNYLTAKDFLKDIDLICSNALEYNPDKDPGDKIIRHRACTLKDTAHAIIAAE
Description: as §1

[3] = target: T3, BAZ^2A (Homo sapiens, UniProt Q9UIF9); assay: BromoScan single-point screen; assay type: binding; conditions: percent of protein captured on solid support vs control
T3 construct: utilizing DNA-tagged bromodomain and immobilized ligand attached to solid support
T3 sequence (Q9UIF9 1793-1897 limits assumed): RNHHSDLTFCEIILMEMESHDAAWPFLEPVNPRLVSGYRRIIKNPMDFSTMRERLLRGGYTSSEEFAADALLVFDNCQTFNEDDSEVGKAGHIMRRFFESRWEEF
Description: as §1

[4] = target: T4, BRD1 (Homo sapiens, UniProt O95696); assay: BromoScan single-point screen; assay type: binding; conditions: percent of protein captured on solid support vs control
T4 construct: utilizing DNA-tagged bromodomain and immobilized ligand attached to solid support
T4 sequence (O95696 562-666 limits assumed): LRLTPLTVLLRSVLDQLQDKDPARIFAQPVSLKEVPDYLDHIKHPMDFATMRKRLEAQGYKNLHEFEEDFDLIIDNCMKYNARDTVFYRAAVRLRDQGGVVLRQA
Description: as §1

[5] = target: T5, BRD2(1) (Homo sapiens, UniProt P25440); assay: BromoScan single-point screen; assay type: binding; conditions: percent of protein captured on solid support vs control
T5 construct: utilizing DNA-tagged bromodomain and immobilized ligand attached to solid support
T5 sequence (P25440 74-180 limits assumed): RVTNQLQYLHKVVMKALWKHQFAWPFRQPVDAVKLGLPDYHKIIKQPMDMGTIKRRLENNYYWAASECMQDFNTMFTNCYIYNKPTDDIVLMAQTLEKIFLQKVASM
Description: as §1

[6] = target: T6, BRD2(2) (Homo sapiens, UniProt P25440); assay: BromoScan single-point screen; assay type: binding; conditions: percent of protein captured on solid support vs control
T6 construct: utilizing DNA-tagged bromodomain and immobilized ligand attached to solid support
T6 sequence (P25440 344-453 limits assumed): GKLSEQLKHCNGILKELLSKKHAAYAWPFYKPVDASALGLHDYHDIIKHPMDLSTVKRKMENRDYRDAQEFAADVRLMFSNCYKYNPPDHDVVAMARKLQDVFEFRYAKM
Description: as §1

[7] = target: T7, BRD3(1) (Homo sapiens, UniProt Q15059); assay: BromoScan single-point screen; assay type: binding; conditions: percent of protein captured on solid support vs control
T7 construct: utilizing DNA-tagged bromodomain and immobilized ligand attached to solid support
T7 sequence (Q15059 34-140 limits assumed): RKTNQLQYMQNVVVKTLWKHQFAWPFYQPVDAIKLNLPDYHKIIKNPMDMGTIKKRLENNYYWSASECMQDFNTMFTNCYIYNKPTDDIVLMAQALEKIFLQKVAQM
Description: as §1

[8] = target: T8, BRD3(2) (Homo sapiens, UniProt Q15059); assay: BromoScan single-point screen; assay type: binding; conditions: percent of protein captured on solid support vs control
T8 construct: utilizing DNA-tagged bromodomain and immobilized ligand attached to solid support
T8 sequence (Q15059 306-415 limits assumed): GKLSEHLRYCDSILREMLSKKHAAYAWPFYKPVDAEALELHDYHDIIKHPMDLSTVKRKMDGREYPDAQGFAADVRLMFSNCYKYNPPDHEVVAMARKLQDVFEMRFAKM
Description: as §1

[9] = target: T9, BRD4(2) (Homo sapiens, UniProt O60885); assay: BromoScan single-point screen; assay type: binding; conditions: percent of protein captured on solid support vs control
T9 construct: utilizing DNA-tagged bromodomain and immobilized ligand attached to solid support
Description: as §1

[10] = target: T10, BRD7 (Homo sapiens, UniProt Q9NPI1); assay: BromoScan single-point screen; assay type: binding; conditions: percent of protein captured on solid support vs control
T10 construct: utilizing DNA-tagged bromodomain and immobilized ligand attached to solid support
Description: as §1
T10 sequence (Q9NPI1 131-235 limits assumed): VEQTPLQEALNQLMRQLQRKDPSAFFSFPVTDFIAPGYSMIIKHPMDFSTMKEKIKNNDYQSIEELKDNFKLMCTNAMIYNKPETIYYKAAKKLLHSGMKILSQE

[11] = target: T11, BRD9 (Homo sapiens, UniProt Q9H8M2); assay: BromoScan single-point screen; assay type: binding; conditions: percent of protein captured on solid support vs control
T11 construct: utilizing DNA-tagged bromodomain and immobilized ligand attached to solid support
T11 sequence (Q9H8M2 136-240 limits assumed): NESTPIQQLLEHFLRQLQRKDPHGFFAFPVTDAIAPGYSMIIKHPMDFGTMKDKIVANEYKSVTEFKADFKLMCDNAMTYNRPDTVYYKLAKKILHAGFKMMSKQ
Description: as §1

[12] = target: T12, BRDT(1) (Homo sapiens, UniProt Q58F21); assay: BromoScan single-point screen; assay type: binding; conditions: percent of protein captured on solid support vs control
T12 construct: utilizing DNA-tagged bromodomain and immobilized ligand attached to solid support
Description: as §1

[13] = target: T13, BRDT(2) (Homo sapiens, UniProt Q58F21); assay: BromoScan single-point screen; assay type: binding; conditions: percent of protein captured on solid support vs control
T13 construct: utilizing DNA-tagged bromodomain and immobilized ligand attached to solid support
Description: as §1

[14] = target: T14, BRPF1 (Homo sapiens, UniProt P55201); assay: BromoScan single-point screen; assay type: binding; conditions: percent of protein captured on solid support vs control
T14 construct: utilizing DNA-tagged bromodomain and immobilized ligand attached to solid support
T14 sequence (P55201 628-732 limits assumed): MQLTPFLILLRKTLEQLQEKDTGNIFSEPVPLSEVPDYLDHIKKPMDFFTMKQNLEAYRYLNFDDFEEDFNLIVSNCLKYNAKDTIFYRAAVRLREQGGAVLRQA
Description: as §1

[15] = target: T15, BRPF3 (Homo sapiens, UniProt Q9ULD4); assay: BromoScan single-point screen; assay type: binding; conditions: percent of protein captured on solid support vs control
T15 construct: utilizing DNA-tagged bromodomain and immobilized ligand attached to solid support
T15 sequence (Q9ULD4 589-693 limits assumed): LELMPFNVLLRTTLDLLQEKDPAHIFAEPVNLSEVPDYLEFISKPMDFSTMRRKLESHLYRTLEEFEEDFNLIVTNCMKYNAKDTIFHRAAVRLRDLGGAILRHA
Description: as §1

[16] = target: T16, CREBBP (Homo sapiens, UniProt Q92793); assay: BromoScan single-point screen; assay type: binding; conditions: percent of protein captured on solid support vs control
T16 construct: utilizing DNA-tagged bromodomain and immobilized ligand attached to solid support
T16 sequence (Q92793 1085-1192 limits assumed): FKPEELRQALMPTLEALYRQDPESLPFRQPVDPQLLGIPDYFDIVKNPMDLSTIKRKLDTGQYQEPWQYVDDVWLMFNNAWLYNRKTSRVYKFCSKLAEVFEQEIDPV
Description: as §1

[17] = target: T17, EP300 (Homo sapiens, UniProt Q09472); assay: BromoScan single-point screen; assay type: binding; conditions: percent of protein captured on solid support vs control
T17 construct: utilizing DNA-tagged bromodomain and immobilized ligand attached to solid support
T17 sequence (Q09472 1049-1156 limits assumed): as the sequence (Q92793 1085-1192 limits assumed) above, with N47S, V73I, F93Y, A98S counted along it
Description: as §1

[18] = target: T18, FALZ (Homo sapiens, UniProt Q12830); assay: BromoScan single-point screen; assay type: binding; conditions: percent of protein captured on solid support vs control
T18 construct: utilizing DNA-tagged bromodomain and immobilized ligand attached to solid support
Description: as §1

[19] = target: T19, GCN5L2 (Homo sapiens, UniProt Q92830); assay: BromoScan single-point screen; assay type: binding; conditions: percent of protein captured on solid support vs control
T19 construct: utilizing DNA-tagged bromodomain and immobilized ligand attached to solid support
T19 sequence (Q92830 728-832 limits assumed): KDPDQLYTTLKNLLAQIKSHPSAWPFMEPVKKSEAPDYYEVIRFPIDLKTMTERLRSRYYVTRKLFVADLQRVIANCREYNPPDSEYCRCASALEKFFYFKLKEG
Description: as §1

[20] = target: T20, PBRM1(2) (Homo sapiens, UniProt Q86U86); assay: BromoScan single-point screen; assay type: binding; conditions: percent of protein captured on solid support vs control
T20 construct: utilizing DNA-tagged bromodomain and immobilized ligand attached to solid support
T20 sequence (Q86U86 177-287 limits assumed): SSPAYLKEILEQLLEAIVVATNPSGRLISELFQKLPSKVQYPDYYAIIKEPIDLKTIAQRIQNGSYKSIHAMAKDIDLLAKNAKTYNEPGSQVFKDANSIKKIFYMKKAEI
Description: as §1

[21] = target: T21, PBRM1(5) (Homo sapiens, UniProt Q86U86); assay: BromoScan single-point screen; assay type: binding; conditions: percent of protein captured on solid support vs control
T21 construct: utilizing DNA-tagged bromodomain and immobilized ligand attached to solid support
T21 sequence (Q86U86 653-763 limits assumed): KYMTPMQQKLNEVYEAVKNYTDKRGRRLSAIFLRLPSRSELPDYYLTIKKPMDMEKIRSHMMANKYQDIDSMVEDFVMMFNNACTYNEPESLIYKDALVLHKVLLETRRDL
Description: as §1

[22] = target: T22, PCAF (Homo sapiens, UniProt Q92831); assay: BromoScan single-point screen; assay type: binding; conditions: percent of protein captured on solid support vs control
T22 construct: utilizing DNA-tagged bromodomain and immobilized ligand attached to solid support
T22 sequence (Q92831 723-827 limits assumed): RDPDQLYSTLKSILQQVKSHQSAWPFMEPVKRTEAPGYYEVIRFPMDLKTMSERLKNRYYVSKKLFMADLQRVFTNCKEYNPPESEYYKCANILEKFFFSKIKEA
Description: as §1

[23] = target: T23, SMARCA2 (Homo sapiens, UniProt P51531); assay: BromoScan single-point screen; assay type: binding; conditions: percent of protein captured on solid support vs control
T23 construct: utilizing DNA-tagged bromodomain and immobilized ligand attached to solid support
T23 sequence (P51531 1378-1506 limits assumed): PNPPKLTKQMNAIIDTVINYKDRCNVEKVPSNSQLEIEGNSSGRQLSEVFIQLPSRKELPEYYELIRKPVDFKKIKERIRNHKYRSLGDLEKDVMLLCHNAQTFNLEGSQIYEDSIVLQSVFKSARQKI
Description: as §1

[24] = target: T24, SMARCA4 (Homo sapiens, UniProt P51532); assay: BromoScan single-point screen; assay type: binding; conditions: percent of protein captured on solid support vs control
T24 construct: utilizing DNA-tagged bromodomain and immobilized ligand attached to solid support
T24 sequence (P51532 1453-1564 limits assumed): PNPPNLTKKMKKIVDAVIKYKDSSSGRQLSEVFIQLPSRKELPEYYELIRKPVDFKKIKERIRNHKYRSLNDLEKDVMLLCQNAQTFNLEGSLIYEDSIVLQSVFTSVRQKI
Description: as §1

[25] = target: T25, TAF1(2) (Homo sapiens, UniProt P21675); assay: BromoScan single-point screen; assay type: binding; conditions: percent of protein captured on solid support vs control
T25 construct: utilizing DNA-tagged bromodomain and immobilized ligand attached to solid support
T25 sequence (P21675 1519-1628 limits assumed): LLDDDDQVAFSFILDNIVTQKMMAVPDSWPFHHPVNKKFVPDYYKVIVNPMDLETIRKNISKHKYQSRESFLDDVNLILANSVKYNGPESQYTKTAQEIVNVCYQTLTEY
Description: as §1

[26] = target: T26, TAF1L(2) (Homo sapiens, UniProt Q8IZX4); assay: BromoScan single-point screen; assay type: binding; conditions: percent of protein captured on solid support vs control
T26 construct: utilizing DNA-tagged bromodomain and immobilized ligand attached to solid support
T26 sequence (Q8IZX4 1517-1626 limits assumed): as the sequence (P21675 1519-1628 limits assumed) above, with V46M, M51V, V102I, L107I counted along it
Description: as §1

[27] = target: T27, TRIM24 (PHD, Bromo.) (Homo sapiens, UniProt O15164); assay: BromoScan single-point screen; assay type: binding; conditions: percent of protein captured on solid support vs control
T27 construct: utilizing DNA-tagged bromodomain and immobilized ligand attached to solid support
T27 sequence (O15164 824-1006 limits assumed): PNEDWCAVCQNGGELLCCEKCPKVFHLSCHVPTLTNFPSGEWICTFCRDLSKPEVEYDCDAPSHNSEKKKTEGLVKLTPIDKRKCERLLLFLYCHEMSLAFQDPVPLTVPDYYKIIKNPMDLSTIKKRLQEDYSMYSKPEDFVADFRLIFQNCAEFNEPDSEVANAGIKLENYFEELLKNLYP
Description: as §1

[28] = target: T28, WDR9(2) (Homo sapiens, UniProt Q9NSI6); assay: BromoScan single-point screen; assay type: binding; conditions: percent of protein captured on solid support vs control
T28 construct: utilizing DNA-tagged bromodomain and immobilized ligand attached to solid support
T28 sequence (Q9NSI6 1313-1418 limits assumed): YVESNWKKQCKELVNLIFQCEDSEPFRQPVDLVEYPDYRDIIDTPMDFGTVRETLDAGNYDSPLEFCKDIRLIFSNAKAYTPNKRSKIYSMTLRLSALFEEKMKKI
Description: as §1

[29] = target: BRD7 (Homo sapiens, UniProt Q9NPI1); assay: BRD7 immunoblot in MOLM-13; conditions: MOLM-13, 4 hour treatment
Target sequence in this assay (Q9NPI1 whole entry): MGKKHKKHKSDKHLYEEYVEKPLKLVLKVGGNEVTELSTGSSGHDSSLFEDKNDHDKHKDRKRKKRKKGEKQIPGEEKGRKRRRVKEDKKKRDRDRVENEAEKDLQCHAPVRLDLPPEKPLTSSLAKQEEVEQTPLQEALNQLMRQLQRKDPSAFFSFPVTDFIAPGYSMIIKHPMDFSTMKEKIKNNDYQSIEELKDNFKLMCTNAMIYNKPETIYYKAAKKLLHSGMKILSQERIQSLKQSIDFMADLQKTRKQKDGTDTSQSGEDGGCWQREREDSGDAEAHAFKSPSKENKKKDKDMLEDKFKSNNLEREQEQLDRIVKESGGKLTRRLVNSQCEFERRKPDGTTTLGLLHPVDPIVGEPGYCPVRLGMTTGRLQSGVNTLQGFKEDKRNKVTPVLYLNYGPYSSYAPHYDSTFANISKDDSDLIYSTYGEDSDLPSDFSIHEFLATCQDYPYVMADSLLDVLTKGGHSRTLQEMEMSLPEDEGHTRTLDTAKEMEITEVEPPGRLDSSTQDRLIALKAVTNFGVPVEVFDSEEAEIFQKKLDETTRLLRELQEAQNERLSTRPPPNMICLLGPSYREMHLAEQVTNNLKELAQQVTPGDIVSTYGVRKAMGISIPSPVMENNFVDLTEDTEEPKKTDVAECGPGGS
Description: In additional experiments, cells were washed with PBS, before being lysed in RIPA buffer supplemented with 1×HALT™ protease inhibitor cocktail (Thermo Scientific) for 10 min on ice, followed by low-amplitude sonication for 10 seconds at 4° C. […] In soluble material was removed by centrifugation at 20,000×g for 20 min before protein content was quantified by BCA assay (Pierce). […] Blots were imaged using fluorescence-labeled secondary antibodies (LI-COR) on the OdysseyCLxImager (LI-COR).

[30] = system: MM.1S multiple myeloma line; assay: ATPlite viability assay, MM.1S; conditions: 72 hour treatment, in words
Description: 500 cells/well were plated at a volume of 40 μL/well in white tissue culture treated 384 well assay plates (Thermo Scientific) before DMSO compound stock was added from pre-diluted plates by pin transfer using a Janus Workstation (PerkinElmer, USA). […] Assay plates were allowed to equilibrate to RT for 30 min before reconstituted ATPlite 1 Step reagent (Perkin Elmer) was dispensed at 1:1 volume/well by EL406 automated liquid handler (Biotek, USA).

% Ctrl @ 1 μM [1]: 100 % Ctrl
% Ctrl @ 1 μM [2]: 60 % Ctrl
% Ctrl @ 1 μM [3]: 42 % Ctrl
% Ctrl @ 1 μM [4]: 42 % Ctrl
% Ctrl @ 1 μM [5]: 4 % Ctrl
% Ctrl @ 1 μM [6]: 43 % Ctrl
% Ctrl @ 1 μM [7]: 5 % Ctrl
% Ctrl @ 1 μM [8]: 19 % Ctrl
% Ctrl @ 1 μM [9]: 40 % Ctrl
% Ctrl @ 1 μM [10]: 0 % Ctrl
% Ctrl @ 1 μM [11]: 0.25 % Ctrl
% Ctrl @ 1 μM [12]: 18 % Ctrl
% Ctrl @ 1 μM [13]: 57 % Ctrl
% Ctrl @ 1 μM [14]: 7.6 % Ctrl
% Ctrl @ 1 μM [15]: 85 % Ctrl
% Ctrl @ 1 μM [16]: 10 % Ctrl
% Ctrl @ 1 μM [17]: 37 % Ctrl
% Ctrl @ 1 μM [18]: 60 % Ctrl
% Ctrl @ 1 μM [19]: 62 % Ctrl
% Ctrl @ 1 μM [20]: 68 % Ctrl
% Ctrl @ 1 μM [21]: 71 % Ctrl
% Ctrl @ 1 μM [22]: 55 % Ctrl
% Ctrl @ 1 μM [23]: 68 % Ctrl
% Ctrl @ 1 μM [24]: 41 % Ctrl
% Ctrl @ 1 μM [25]: 19 % Ctrl
% Ctrl @ 1 μM [26]: 54 % Ctrl
% Ctrl @ 1 μM [27]: 84 % Ctrl
% Ctrl @ 1 μM [28]: 83 % Ctrl
BRD7 degradation (immunoblot) [29]: degradation was observed
SMILES: COc1cc(-c2cn(C)c(=O)c3cc(C(=N)NC4CCS(=O)(=O)CC4)sc23)ccc1OCC(=O)NCCCCCCCCNc1cccc2c1CN(C1CCC(=O)NC1=O)C2=O (stereo not drawn) [Compound I-17]
efficacy on viability [30]: comparable efficacy
